Each block holds one compound with its values, some of them ahead of it.
What was measured:
[1] = biological target: T1, P-glycoprotein (Oryctolagus cuniculus, UniProt Q6UUW3); experiment: Apical to basolateral transport of 14C-paclitaxel across rabbit intestinal mucosa with and without glycol ethers or verapamil; format: in vitro ADME
T1 construct: from tissue; host or cells: rabbit intestinal mucosa (tissue perfusion / diffusion cells)
Procedure: Briefly, fresh mucosal samples are collected from female, white New Zealand rabbits, are separated from underlying connective tissue, and are mounted into modified Franz-type diffusion cells (5 mm diameter). […] Radioactivity is determined by liquid scintillation counting using a Beckman LS 6500. Each transport experiment is performed in four replicate tissue samples. […] Individual and mean Papp values with corresponding standard deviations (S.D.) are calculated for each group. Statistical significance is tested by one-way analysis of variance (ANOVA) using Tukey's family error at p<0.05. […]

[2] = test system: cytochrome P450; experiment: Cytochrome P450-mediated oxidation of coumarin to 7α-hydroxycoumarin by rabbit liver microsomes; format: biochemical; settings: 1% glycol ether
Procedure: To evaluate the effect of glycol ethers on cytochrome P450-mediated metabolism, enzymatic conversion of coumarin to its 7α-hydroxycoumarin oxidation product by rabbit liver microsomes in the presence and absence of 5% DGMEE, 1% DBMPE, and 1% DGMBE is determined according to a protocol described previously by Pearce and co-workers (Arch. Biochem. Biophys., 298, 211-225 (1992)).

[3] = test system: membrane efflux systems; experiment: Bidirectional transport of ritonavir across rabbit mucosa in diffusion cells (membrane efflux activity); format: in vitro ADME
Source text: To illustrate experimentally the functional differences in membrane efflux activity among the intestinal, vaginal, and buccal mucosal barriers, bidirectional transport of the protease inhibitor ritonavir is quantitatively assessed and results seen in FIG. 1 may be obtained (FIG. 1). Experimental procedures are described in Example 2.
Briefly, fresh mucosal samples are collected from female, white New Zealand rabbits, are separated from underlying connective tissue, and are mounted into modified Franz-type diffusion cells (5 mm diameter). Permeability studies from the apical to the basolateral as well as in the opposite direction are performed using continuous-flow perfusion chambers designed for mucosal tissue (Squier et al. J. Pharm. Sci., 86, 82-84 (1997)). ^3H-Ritonavir (˜3 μCi/mL) dissolved in 1 mL of 0.01 M PBS, pH 7.4, is applied to the donor compartment, and the perfusate in the received compartment is collected into scintillation vials through 16 hrs. Radioactivity is determined by liquid scintillation counting using a Beckman LS 6500. Each transport experiment is performed in four replicate tissue samples. Apparent permeability coefficients (Papp) are calculated from steady state flux according to Papp [cm/min]=(ΔQ/Δt)/Axc(0), where ΔQ/Δt=linear appearance rate of mass in the receiver, A=cross-sectional area (i.e., 0.20 cm^2), and c(0)=initial ritonavir concentration in the donor compartment at t=0. Individual and mean Papp values with corresponding standard deviations (S.D.) are calculated for each group. Statistical significance is tested by one-way analysis of variance (ANOVA) using Tukey's family error at p<0.05. To evaluate the contribution of membrane efflux system on ritonavir permeability Refflux was calculated as the ratio of Papp(basolateral-apical)/Papp(apical-basolateral).

T1 sequence (Q6UUW3 1-1279): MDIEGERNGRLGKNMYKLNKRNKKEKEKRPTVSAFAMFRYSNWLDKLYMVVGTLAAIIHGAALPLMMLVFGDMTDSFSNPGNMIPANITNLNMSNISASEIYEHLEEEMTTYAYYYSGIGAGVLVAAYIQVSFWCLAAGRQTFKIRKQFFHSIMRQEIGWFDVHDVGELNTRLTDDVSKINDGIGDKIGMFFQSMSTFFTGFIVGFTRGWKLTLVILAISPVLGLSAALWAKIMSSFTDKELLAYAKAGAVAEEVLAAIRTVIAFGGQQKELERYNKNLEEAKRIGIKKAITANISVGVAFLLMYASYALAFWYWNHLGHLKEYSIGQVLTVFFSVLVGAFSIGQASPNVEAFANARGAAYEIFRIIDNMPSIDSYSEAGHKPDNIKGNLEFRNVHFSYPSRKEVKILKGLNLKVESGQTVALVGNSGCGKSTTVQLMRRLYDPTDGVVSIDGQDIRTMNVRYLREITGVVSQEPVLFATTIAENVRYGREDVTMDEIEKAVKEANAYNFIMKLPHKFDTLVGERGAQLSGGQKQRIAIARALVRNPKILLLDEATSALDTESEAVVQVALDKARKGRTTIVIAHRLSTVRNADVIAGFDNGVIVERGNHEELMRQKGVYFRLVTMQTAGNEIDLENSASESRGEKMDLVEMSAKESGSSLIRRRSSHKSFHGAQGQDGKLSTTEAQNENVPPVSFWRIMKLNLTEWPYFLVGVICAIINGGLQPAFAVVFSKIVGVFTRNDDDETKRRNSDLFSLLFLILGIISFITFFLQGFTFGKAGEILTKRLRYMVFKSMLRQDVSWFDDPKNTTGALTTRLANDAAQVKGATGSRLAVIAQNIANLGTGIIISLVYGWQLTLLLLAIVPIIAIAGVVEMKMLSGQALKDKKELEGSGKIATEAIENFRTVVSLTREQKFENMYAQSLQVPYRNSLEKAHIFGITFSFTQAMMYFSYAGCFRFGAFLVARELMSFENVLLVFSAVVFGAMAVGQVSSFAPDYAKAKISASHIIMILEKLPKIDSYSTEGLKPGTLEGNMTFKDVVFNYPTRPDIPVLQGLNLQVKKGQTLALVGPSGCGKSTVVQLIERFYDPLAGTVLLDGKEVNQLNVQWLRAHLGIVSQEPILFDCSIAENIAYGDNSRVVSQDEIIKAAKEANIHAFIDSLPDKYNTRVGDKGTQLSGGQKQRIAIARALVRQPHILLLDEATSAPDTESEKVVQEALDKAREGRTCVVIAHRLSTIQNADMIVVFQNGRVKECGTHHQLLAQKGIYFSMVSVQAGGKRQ

- enhancement of intestinal absorption of paclitaxel ([1]; 5% in transport buffer): 1.8 fold
SMILES: CCOCCOCCO [DGMEE, diethylene glycol mono 2-ethyl ether]

- enhancement of intestinal absorption of paclitaxel ([1]; 1% in transport buffer): 4.1 fold
- reduction of formation of the 7α-hydroxycoumarin metabolite [2]: about 42%
SMILES: CCCCOCCOCCO [DGMBE, diethylene glycol monobutyl ether]

- enhancement of intestinal absorption of paclitaxel ([1]; 1% in transport buffer): 2.5 fold
SMILES: CCCOCCOCCO [DGMPE, diethylene glycol monopropyl ether]

- Refflux compared with intestinal barrier ([3]; buccal rabbit epithelium in vitro): significantly smaller
- basolateral to apical flux relative to the opposite direction (Refflux) ([3]; intestinal rabbit mucosa in vitro, 3H-ritonavir): 9.2 fold
- Refflux compared with intestinal barrier ([3]; vaginal rabbit epithelium in vitro): significantly smaller
SMILES: CC(C)c1nc(CN(C)C(=O)N[C@H](C(=O)N[C@@H](Cc2ccccc2)C[C@H](O)[C@H](Cc2ccccc2)NC(=O)OCc2cncs2)C(C)C)cs1 [ritonavir]

— patent US8178123B2, “Method for augmentation of intraepithelial and systemic exposure of therapeutic agents having substrate activity for cytochrome P450 enzymes and membrane efflux systems following vaginal and oral cavity administration” (Femina Pharma Incorporated, priority 2001, dated 2012)
